The values below come from ChEMBL document CHEMBL1201862, “PubChem BioAssay data set” (2004).

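Test compounds were applied to cells in 96-well plates for 48 hours at 5 doses. GI50 = concentration required for 50% inhibition of growth.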 Activity calls are given as the source filed them. Cut-off read from the data, not from the text of the source: active = GI50 up to about 1.1 µM and inactive = higher. Where a SMILES comes first, the peptide text is derived from it. [ ]: non-standard residue; d: D form. The star is where a group is joined. Octanoyl = CCCCCCCC(=O)*; Aib = CC(C)(N)C(=O)O; tBu = CC(C)(C)*

Some test systems named below: LOX IMVI; OVCAR-3; A498; HL-60; MDA-MB-435; NCI-H226; PC-3; M14; KM12; CAKI-1; K562; SK-MEL-2; 786-0; RPMI-8226; MOLT-4; Malme-3M; HCT-15; OVCAR-4; ACHN; NCI-H460.
What all share (experiment): inhibition of tumour cell growth, NCI panel, 48 h

Take `O=C(CN1CCOCC1)c1ccc2c(c1)oc(=O)n2CCN1CCOCC1`: the GI50 with LOX IMVI, with OVCAR-3, in the assay with A498, in the assay on HL-60, with MDA-MB-435 and with NCI-H226 was > 100 µM (inactive) in each case. Besides, the GI50 in the assay with PC-3, in the assay with M14, with KM12, in the assay with CAKI-1, with K562 and with SK-MEL-2 was > 100 µM (inactive) each time. In addition, the GI50 with 786-0, in the assay with RPMI-8226, in the assay with MOLT-4 and in the assay on Malme-3M was > 100 µM (inactive) in each case.
`CN1C(=O)c2ccccc2NC(=O)C12O[C@@H]2c1ccccc1` (stereo not given in full): the GI50 with LOX IMVI, in the assay with OVCAR-3, in the assay with A498, in the assay on HL-60, in the assay on MDA-MB-435 and in the assay on PC-3 was > 100 µM (inactive) throughout. Besides, the GI50 with HCT-15 was above 10 µM; in the assay on M14, > 100 µM (inactive); in the assay on KM12 it was > 100 µM (inactive); in the assay on CAKI-1, 75.2 µM (inactive); with OVCAR-4 it was > 100 µM (inactive); in the assay with ACHN, > 100 µM (inactive). The GI50 with SK-MEL-2, with 786-0, in the assay with NCI-H460, in the assay on RPMI-8226, with MOLT-4 and in the assay on Malme-3M was > 100 µM (inactive) throughout.
Take `C=CCc1cccc2cc(C(=O)Nc3nc(C45CC6CC(CC(C6)C4)C5)cs3)c(=O)oc12`: the GI50 is 19.4 µM (inactive) with LOX IMVI; 24.4 µM (inactive) in the assay with OVCAR-3; 25.2 µM (inactive) with A498; 34 µM (inactive) with HL-60; 51.5 µM (inactive) in the assay with MDA-MB-435; 29.1 µM (inactive) in the assay on NCI-H226. For the same compound, the GI50 in the assay with PC-3 is 29.6 µM (inactive); with HCT-15, 67 µM; in the assay on KM12, 28.1 µM (inactive); with CAKI-1 it was 20.6 µM (inactive); in the assay on K562, 27.4 µM (inactive); in the assay on OVCAR-4, 21 µM (inactive). Also, the GI50 in the assay on ACHN was 17 µM (inactive); in the assay with 786-0, 23.2 µM (inactive); with NCI-H460, 29.9 µM (inactive); with RPMI-8226, 26.9 µM (inactive); in the assay on MOLT-4, 34.7 µM (inactive); in the assay with Malme-3M, 46 µM (inactive).
As for `CC(C)CC(NC=O)C(=O)NC(Cc1ccccc1)NC(=O)CNC(=O)C(C)NC(=O)OC(C)(C)C` (stereo not given), the GI50 with LOX IMVI is > 100 µM (inactive); with OVCAR-3, > 100 µM (inactive); in the assay with A498 it was 21.9 µM (inactive); in the assay on HL-60, > 100 µM (inactive); in the assay on MDA-MB-435, > 100 µM (inactive); with NCI-H226 it was > 100 µM (inactive). For the same compound, the GI50 in the assay on PC-3 is > 100 µM (inactive); in the assay on HCT-15, above 100 µM; with M14, > 100 µM (inactive); with KM12 it was > 100 µM (inactive); in the assay on CAKI-1 it was > 100 µM (inactive); with K562, > 100 µM (inactive). In addition, the GI50 with OVCAR-4, in the assay on ACHN, in the assay on 786-0, in the assay on NCI-H460, with RPMI-8226 and in the assay with MOLT-4 was > 100 µM (inactive) each time. Further, the GI50 in the assay on Malme-3M is > 100 µM (inactive).
With `CC1COC(c2cn[nH]c2C(N)=O)C1O` (stereo not given), the GI50 with LOX IMVI, with OVCAR-3, with A498, in the assay with HL-60, in the assay on MDA-MB-435 and in the assay with NCI-H226 was > 100 µM (inactive) each time. Also, the GI50 in the assay with PC-3 is > 100 µM (inactive); with HCT-15 it was above 100 µM; with M14 it was > 100 µM (inactive); in the assay on KM12 it was > 100 µM (inactive); in the assay with CAKI-1, > 100 µM (inactive); with K562 it was > 100 µM (inactive). For the same compound, the GI50 in the assay with OVCAR-4, in the assay on ACHN, in the assay with SK-MEL-2, with 786-0, in the assay with NCI-H460 and in the assay with RPMI-8226 was > 100 µM (inactive) each time. For the same compound, in the assay with MOLT-4, the GI50 is > 100 µM (inactive).
As to `C=Cc1ccccc1C1(O)C=CC(OC)(OC)C=C1`, the GI50 in the assay with OVCAR-3 was 3.05 µM (inactive); with A498, 23.2 µM (inactive); in the assay on HL-60 it was 3.4 µM (inactive); in the assay with MDA-MB-435, 4.36 µM (inactive); in the assay with NCI-H226 it was 30.5 µM (inactive); with PC-3, 10.1 µM (inactive). In addition, the GI50 with HCT-15 is 3.53 µM; in the assay with M14, 5.96 µM (inactive); in the assay on KM12, 0.617 µM (active); in the assay on CAKI-1, 5.68 µM (inactive); with K562 it was 7.6 µM (inactive); with OVCAR-4, 17.8 µM (inactive). In addition, the GI50 was 12.4 µM (inactive) in the assay on ACHN; 17.3 µM (inactive) in the assay on SK-MEL-2; 5.04 µM (inactive) in the assay with 786-0; 8.57 µM (inactive) with NCI-H460; 6.41 µM (inactive) with RPMI-8226; 4 µM (inactive) with MOLT-4. In addition, in the assay on Malme-3M, the GI50 was 13.5 µM (inactive).
Regarding `COCCN(C(=O)c1ccccc1)C1CCC2(SCCS2)c2[nH]c3ccccc3c21` (stereo not given), the GI50 was 57.7 µM (inactive) in the assay with LOX IMVI; 51.2 µM (inactive) in the assay on OVCAR-3; 45.7 µM (inactive) with A498; 14.9 µM (inactive) in the assay on HL-60; 20.4 µM (inactive) in the assay with MDA-MB-435; > 100 µM (inactive) in the assay on NCI-H226. For the same compound, the GI50 in the assay on PC-3 was 20 µM (inactive); in the assay on HCT-15, 28.8 µM; in the assay on KM12 it was 28.5 µM (inactive); in the assay on CAKI-1 it was 79.6 µM (inactive); in the assay with K562, 15.9 µM (inactive); in the assay on ACHN it was 37.5 µM (inactive). Also, the GI50 with 786-0 was 60.8 µM (inactive); in the assay on NCI-H460, 29.6 µM (inactive); with RPMI-8226, 20.2 µM (inactive); in the assay on MOLT-4 it was 18.5 µM (inactive); with Malme-3M it was 36.2 µM (inactive).
`CCCCCCCC(=O)NC(C)(C)C(=O)NC(COC(C)(C)C)C(=O)NC(CC(C)C)C(=O)NC(C)(C)C(=O)NC(COC(C)(C)C)C(=O)NC(COC(C)(C)C)C(=O)NC(CC(C)C)C(=O)NC(C)(C)C(=O)NC(COC(C)(C)C)C(=O)NC(C(=O)NC(CC(C)C)C(=O)OC)C(C)CC` (stereo not given) (Octanoyl-[Aib]S(tBu)L[Aib]S(tBu)S(tBu)L[Aib]S(tBu)IL-OMe; configuration not given here): the GI50 in the assay on LOX IMVI is 5.61 µM (inactive); in the assay with OVCAR-3 it was 4.85 µM (inactive); with A498, 5.5 µM (inactive); in the assay with HL-60, 6.46 µM (inactive); with MDA-MB-435 it was 7.94 µM (inactive); in the assay on NCI-H226 it was 7.33 µM (inactive). The GI50 was 4.23 µM (inactive) in the assay with PC-3; 8.13 µM in the assay with HCT-15; 6.32 µM (inactive) with M14; 6.67 µM (inactive) with KM12; 18.5 µM (inactive) in the assay on CAKI-1; 5.52 µM (inactive) in the assay with K562. Further, the GI50 with OVCAR-4 was 8.63 µM (inactive); in the assay with ACHN, 7.62 µM (inactive); in the assay with SK-MEL-2 it was 6.01 µM (inactive); in the assay with 786-0 it was 7.89 µM (inactive); in the assay with NCI-H460 it was 5.64 µM (inactive); in the assay with RPMI-8226, 2.72 µM (inactive). Also, the GI50 in the assay with MOLT-4 was 5.52 µM (inactive).
